Reference: patent EP4803525A1 (Hefei Institute of Pharmaceutical Industry Co., Ltd., priority 2023, dated 2025)
One block for each molecule: values may come before it.

Legend:
[1] = tested on: bleomycin-induced pulmonary fibrosis in rats; assay: Bleomycin-induced pulmonary fibrosis in rats; conditions: mean ± SD, n=10; for Percentage of lung collagen fibers (%): Masson's staining; for IL-6 / TGF-β: bronchoalveolar lavage fluid, ELISA
Protocol: 50 SD rats were randomly divided into 5 groups according to their body weight, with 10 rats in each group and half male and half female.
After anesthetizing rats with chloral hydrate, bleomycin solution was injected into the trachea through the vocal cords at a dose of 5 mg/kg and a volume of 1 ml/kg; rats in the blank control group were injected with an equal volume of physiological saline into the trachea. […] Blood and lungs were collected from each group of animals on day 22. After euthanizing the rats, the trachea was exposed, and an intravenous cannula was inserted into the rat's bronchus. The trachea was lavaged twice with PBS (5 ml), and the lavage fluid was collected. Then, centrifugation was performed at 1500 r/min for 10 min. The supernatant was collected.

[2] = tested on: mouse eosinophilic asthma model; assay: Eosinophilic asthma induced by house dust mite extract in mice; conditions: eosinophilic asthmatic mice, n=10; for IL-4 / IgE: bronchoalveolar lavage fluid, Mean ± SD; for Eosinophils (%): lung lavage fluid; for Eosinophils (%) / Number of sneezes (20 minutes): mean ± SD; for Number of sneezes (20 minutes): within 20 minutes after the last administration
Protocol: The number of eosinophils in the lung lavage fluid of mice and the number of sneezes in mice within 20 minutes after the last administration were counted.

[3] = tested on: rat model of chronic obstructive pulmonary disease (COPD); assay: Chronic obstructive pulmonary disease in rats (fumigation and intratracheal LPS); conditions: n=8; for 14-day FEV 1/FVC (%): day 14 of treatment; for 14-day FEV 1/FVC (%) / 28-day FEV 1/FVC (%): Mean ± SD; for 28-day FEV 1/FVC (%): last administration (28 days); for Pathological score: lung tissue, HE staining; for Pathological score / IL-1β / TNF-α: mean ± SD; for IL-1β / TNF-α: serum, ELISA
Protocol: Subsequently, the SD rats were randomly divided into 5 groups according to their body weight, with 8 rats in each group and half male and half female.
Except for the blank control group, SD rats were used to establish a rat model of chronic obstructive pulmonary disease (COPD) by fumigation and intratracheal instillation of LPS. On days 1, 14, 28 and 42 of modeling, the rats were anesthetized with chloral hydrate and then 125 µL of LPS (2 mg/mL) solution was instilled into the trachea. For the rest of the time, the animals were placed in a self-made fumigation box and each group of rats was continuously fumigated with 10 lit cigarettes for 1.5 hours (once in the morning and once in the afternoon) for 50 consecutive days. After the model was established, the rats in each group were given the drug twice a day for 28 consecutive days.
The rat lung function test instrument was used to measure FVC and FEV1 on day 14 of treatment and at the last administration, and the FEV1/FVC ratio was calculated.
Blood samples were collected after the last administration of the drug to measure inflammatory markers. Levels of IL-1β and TNF-α in serum were measured according to the ELISA instructions.
After the last treatment, all three lobes of the right lung of the rats were removed, fixed and dehydrated in 10% formaldehyde, embedded in paraffin, sectioned, and stained with hematoxylin and eosin (HE). The morphological changes of the lung tissue of the rats in each group were observed.

hERG potassium channel = molecular target: T1, hERG potassium channel (Homo sapiens, UniProt Q12809); assay: hERG whole-cell patch-clamp test in HEK-293 cells; format: cell-based; conditions: HEK-293 cells stably expressing hERG, whole-cell patch clamp, 0.03-30 µM, read-out: h ERG IC50
T1 construct: host or cells: HEK-293
T1 sequence (Q12809 whole entry): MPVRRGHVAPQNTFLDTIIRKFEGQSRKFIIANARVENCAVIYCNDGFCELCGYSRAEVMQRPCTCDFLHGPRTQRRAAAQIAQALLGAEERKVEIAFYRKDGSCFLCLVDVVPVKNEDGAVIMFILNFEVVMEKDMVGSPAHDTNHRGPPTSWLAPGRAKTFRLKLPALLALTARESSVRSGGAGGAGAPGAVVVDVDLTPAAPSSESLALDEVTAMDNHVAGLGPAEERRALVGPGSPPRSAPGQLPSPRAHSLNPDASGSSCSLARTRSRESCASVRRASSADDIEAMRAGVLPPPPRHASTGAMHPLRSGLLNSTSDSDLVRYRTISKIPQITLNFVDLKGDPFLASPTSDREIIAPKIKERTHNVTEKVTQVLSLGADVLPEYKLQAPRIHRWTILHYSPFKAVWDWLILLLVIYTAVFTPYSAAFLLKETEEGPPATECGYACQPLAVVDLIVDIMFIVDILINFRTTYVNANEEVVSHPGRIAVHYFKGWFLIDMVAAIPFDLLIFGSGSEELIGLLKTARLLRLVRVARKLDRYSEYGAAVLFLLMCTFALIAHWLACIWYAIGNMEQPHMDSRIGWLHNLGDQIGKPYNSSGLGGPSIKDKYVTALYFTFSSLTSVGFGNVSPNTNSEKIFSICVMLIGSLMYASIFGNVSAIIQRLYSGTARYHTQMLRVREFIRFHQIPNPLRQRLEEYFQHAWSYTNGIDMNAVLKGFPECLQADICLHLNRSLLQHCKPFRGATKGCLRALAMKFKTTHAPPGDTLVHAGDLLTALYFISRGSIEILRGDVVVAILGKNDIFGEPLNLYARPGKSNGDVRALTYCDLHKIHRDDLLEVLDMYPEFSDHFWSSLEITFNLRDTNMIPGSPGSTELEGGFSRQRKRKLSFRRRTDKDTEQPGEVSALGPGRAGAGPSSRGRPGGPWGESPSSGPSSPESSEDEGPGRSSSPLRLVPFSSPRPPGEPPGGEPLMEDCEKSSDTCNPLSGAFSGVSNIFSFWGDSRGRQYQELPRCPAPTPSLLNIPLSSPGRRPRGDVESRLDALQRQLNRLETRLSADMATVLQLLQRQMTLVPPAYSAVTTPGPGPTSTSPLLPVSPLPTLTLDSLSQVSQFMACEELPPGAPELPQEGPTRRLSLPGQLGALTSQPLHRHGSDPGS
Protocol: HEK-293 cell line stably expressing hERG potassium channels (purchased from Creacell, catalog number: A-0320) was used. HEK293 cell lines were cultured in DMEM medium containing 10% fetal bovine serum and 0.8 mg/mL G418 at a temperature of 37°C and a carbon dioxide concentration of 5%. For patch-clamp assays, cells were separated using TrypLE™ Express before the assay. 4 × 10^3 cells were seeded onto coverslips and cultured in 24-well plates (final volume: 500 µL). The assays were performed 18 hours later.
Whole-cell patch-clamp test: after whole-cell sealing is achieved, the cell membrane voltage is clamped to -80mV. […] Data was collected every 10 seconds to observe the effect of the drug on hERG tail current. A -50 mV stimulus of 0.5 s was used as the leakage current detection. Experimental data were collected by the EPC-10 amplifier and stored in the software. Once the hERG current recorded in whole cells stabilized, drug administration began. Each drug concentration was administered for 5 minutes (or the current stabilized) before the next concentration was measured.

PDE4C1 = molecular target: T2, PDE4C1 (Homo sapiens, UniProt Q08493); assay: Selectivity for PDE4 enzyme isotypes, same detection method as PDE4B; format: biochemical
T2 construct: purchased BPS bioscience
T2 sequence (Q08493 whole entry): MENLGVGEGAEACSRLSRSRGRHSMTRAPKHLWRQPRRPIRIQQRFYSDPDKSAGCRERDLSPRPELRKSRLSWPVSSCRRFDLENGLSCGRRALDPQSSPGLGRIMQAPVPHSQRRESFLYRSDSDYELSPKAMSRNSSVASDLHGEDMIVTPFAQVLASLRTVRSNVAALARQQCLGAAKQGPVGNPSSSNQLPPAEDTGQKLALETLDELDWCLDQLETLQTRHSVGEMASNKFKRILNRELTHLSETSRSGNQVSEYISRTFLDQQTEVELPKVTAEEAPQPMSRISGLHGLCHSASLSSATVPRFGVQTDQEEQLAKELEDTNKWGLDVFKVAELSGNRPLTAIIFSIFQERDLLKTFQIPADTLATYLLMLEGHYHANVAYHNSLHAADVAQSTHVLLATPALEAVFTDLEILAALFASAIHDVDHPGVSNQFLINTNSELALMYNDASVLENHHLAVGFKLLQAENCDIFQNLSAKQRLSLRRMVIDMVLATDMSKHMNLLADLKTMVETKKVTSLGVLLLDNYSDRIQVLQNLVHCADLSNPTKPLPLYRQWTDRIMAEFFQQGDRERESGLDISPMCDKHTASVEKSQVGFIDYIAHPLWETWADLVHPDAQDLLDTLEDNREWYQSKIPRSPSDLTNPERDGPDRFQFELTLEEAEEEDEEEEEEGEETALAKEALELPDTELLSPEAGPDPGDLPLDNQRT
Protocol: (§1) 2.1 Compound preparation and treatment: all compounds were prepared into 50 mM stock solutions using dimethyl sulfoxide.
(§2) 2.2 Preparation of working stock solution: a) the reference rolipram was serially diluted 3 times with dimethyl sulfoxide starting from 2 mmol, to a total of 10 concentrations. b) 2 mmol of the compound of the present invention was serially diluted three times with dimethyl sulfoxide (DMSO) to a total of 10 concentrations. c) A 200X positive control (2 mM rolipram) and a 200X vector control (100% dimethyl sulfoxide) were prepared. d) The compound plate was centrifuged at 1000 rpm for 1 minute.
(§3) • a) An Echo 550 was used to transfer 20 nL of compound dilution to each well of the detection plate. • b) The test plate was sealed and centrifuged at 1000 rpm for 1 minute. • c) 2X PDE4B2 was prepared in frozen PDE detection buffer. • d) 2 µL of 2X PDE4B2 was added to each well of the detection plate (prepared in step b). • e) The test plate was sealed and incubated for 10 minutes under RT conditions. • f) 2X Cyclic-3',5'-AMP was prepared in PDE detection buffer. • g) 2 µl of 2X Cyclic-3',5'-AMP (prepared in step f) was added to each well of the detection plate (prepared in step e) to initiate the reaction. Incubation was performed at room temperature for 60 minutes. • h) 4 µL of AMP-Glo reagent I was added. • i) 8 µL of AMP detection solution was added. Incubation was performed at room temperature for 60 minutes. • k) The RLU signal was read on the Envision 2105 reader.
(§4) Same detection method as PDE4B

PDE4A1A = molecular target: T3, PDE4A1A (Homo sapiens, UniProt P27815); assay: as above; format: biochemical
T3 construct: purchased BPS bioscience
T3 sequence (P27815 1-647 isoform P27815-4): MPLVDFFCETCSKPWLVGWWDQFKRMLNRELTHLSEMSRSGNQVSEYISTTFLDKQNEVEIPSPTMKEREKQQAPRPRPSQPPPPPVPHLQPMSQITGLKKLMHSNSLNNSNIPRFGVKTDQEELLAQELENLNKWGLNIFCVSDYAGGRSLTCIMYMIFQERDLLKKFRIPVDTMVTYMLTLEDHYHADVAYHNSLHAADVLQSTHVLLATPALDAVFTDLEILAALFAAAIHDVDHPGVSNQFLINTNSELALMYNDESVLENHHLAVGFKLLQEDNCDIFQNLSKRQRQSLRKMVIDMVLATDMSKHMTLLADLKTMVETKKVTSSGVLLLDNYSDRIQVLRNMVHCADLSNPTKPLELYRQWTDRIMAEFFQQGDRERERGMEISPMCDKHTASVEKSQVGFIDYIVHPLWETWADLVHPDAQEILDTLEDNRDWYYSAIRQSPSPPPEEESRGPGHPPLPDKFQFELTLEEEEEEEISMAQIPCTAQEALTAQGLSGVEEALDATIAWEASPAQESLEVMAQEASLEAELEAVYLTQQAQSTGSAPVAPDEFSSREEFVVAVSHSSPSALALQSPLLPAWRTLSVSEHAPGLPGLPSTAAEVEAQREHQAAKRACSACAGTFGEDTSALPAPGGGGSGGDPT
Protocol: as §1, §2, §3, §4

PDE4D2 = molecular target: T4, PDE4D2 (Homo sapiens, UniProt Q08499); assay: as above; format: biochemical
T4 construct: purchased BPS bioscience
T4 sequence (Q08499 303-809): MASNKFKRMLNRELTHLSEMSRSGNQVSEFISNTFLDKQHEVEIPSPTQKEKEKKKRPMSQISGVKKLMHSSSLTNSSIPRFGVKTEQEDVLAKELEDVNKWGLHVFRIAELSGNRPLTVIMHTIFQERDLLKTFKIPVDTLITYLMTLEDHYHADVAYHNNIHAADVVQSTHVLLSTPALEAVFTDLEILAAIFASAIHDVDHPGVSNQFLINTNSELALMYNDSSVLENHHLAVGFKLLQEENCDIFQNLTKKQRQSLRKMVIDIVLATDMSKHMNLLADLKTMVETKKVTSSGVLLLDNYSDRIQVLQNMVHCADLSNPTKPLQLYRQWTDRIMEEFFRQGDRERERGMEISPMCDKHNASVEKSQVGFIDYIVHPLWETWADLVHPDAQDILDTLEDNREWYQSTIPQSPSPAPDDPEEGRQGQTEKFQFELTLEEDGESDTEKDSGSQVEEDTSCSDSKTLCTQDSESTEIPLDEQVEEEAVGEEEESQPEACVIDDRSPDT
Protocol: as §1, §2, §3, §4

PDE4B2A = molecular target: T5, PDE4B2A (Homo sapiens, UniProt Q07343); assay: as above; format: biochemical
T5 construct: purchased BPS bioscience
T5 sequence (Q07343 1-564 isoform Q07343-2): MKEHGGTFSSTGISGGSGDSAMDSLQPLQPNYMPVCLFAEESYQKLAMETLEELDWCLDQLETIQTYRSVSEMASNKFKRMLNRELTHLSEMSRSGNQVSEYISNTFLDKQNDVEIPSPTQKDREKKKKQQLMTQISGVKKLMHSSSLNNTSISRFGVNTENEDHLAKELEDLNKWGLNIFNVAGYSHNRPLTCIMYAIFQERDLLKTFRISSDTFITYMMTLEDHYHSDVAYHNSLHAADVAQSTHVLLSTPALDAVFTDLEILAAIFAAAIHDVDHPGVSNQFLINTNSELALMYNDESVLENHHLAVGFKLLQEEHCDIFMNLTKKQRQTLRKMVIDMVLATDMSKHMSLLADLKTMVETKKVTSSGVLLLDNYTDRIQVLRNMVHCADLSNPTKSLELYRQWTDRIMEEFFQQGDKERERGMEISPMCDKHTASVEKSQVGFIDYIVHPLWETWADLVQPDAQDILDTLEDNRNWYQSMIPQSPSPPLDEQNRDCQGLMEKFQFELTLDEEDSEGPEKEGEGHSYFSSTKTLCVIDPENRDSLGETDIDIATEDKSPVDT
Protocol: as §1, §2, §3, §4

PDE4D3 = molecular target: T6, PDE4D3 (Homo sapiens, UniProt Q08499); assay: as above; format: biochemical
T6 construct: purchased BPS bioscience
T6 sequence (Q08499 1-673 isoform Q08499-2): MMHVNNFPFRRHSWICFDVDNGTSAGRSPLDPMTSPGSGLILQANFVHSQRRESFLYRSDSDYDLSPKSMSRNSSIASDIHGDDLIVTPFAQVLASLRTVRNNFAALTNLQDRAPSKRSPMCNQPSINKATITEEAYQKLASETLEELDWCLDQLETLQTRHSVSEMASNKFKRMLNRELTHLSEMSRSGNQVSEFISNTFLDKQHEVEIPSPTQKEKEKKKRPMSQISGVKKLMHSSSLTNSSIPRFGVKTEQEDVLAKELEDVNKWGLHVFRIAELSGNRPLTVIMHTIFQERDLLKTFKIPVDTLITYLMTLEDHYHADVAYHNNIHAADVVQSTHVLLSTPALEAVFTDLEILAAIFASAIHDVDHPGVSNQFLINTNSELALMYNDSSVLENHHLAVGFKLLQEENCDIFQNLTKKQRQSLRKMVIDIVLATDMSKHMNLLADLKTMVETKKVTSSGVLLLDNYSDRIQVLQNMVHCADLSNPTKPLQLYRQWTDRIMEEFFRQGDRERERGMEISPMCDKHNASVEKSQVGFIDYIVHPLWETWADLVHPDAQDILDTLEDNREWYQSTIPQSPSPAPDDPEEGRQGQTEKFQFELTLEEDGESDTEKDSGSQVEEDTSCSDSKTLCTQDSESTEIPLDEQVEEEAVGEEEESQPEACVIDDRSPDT
Protocol: as §1, §2, §3, §4

[4] = 5 mg/kg intragastric twice daily for 14 days
[5] = 10 mg/kg intragastric twice daily for 14 days
[6] = 20 mg/kg intragastric twice daily for 14 days
[7] = 5 mg/kg twice daily for 14 days
[8] = 10 mg/kg twice daily for 14 days
[9] = 20 mg/kg twice daily for 14 days
[10] = 5 mg/kg twice a day for 28 days
[11] = 10 mg/kg twice a day for 28 days
[12] = 20 mg/kg twice a day for 28 days

SMILES: O=C(O)Cc1ccc(Nc2nc(N3CCC(c4ncc(Cl)cn4)CC3)nc3c2S(=O)(=O)CCC3)cc1F [Example 11, 2-(4-((2-(4-(5-chloropyrimidin-2-yl)piperidin-1-yl)-5,5-dioxo-7,8-dihydro-6H -thiapyrano[3,2-d]pyrimidin-4-yl)amino)-2-fluorophenyl)acetic acid]
- Percentage of lung collagen fibers (%) [1, 4]: 16.1±4.6 %
- Percentage of lung collagen fibers (%) [1, 5]: 9.7±2.2 %
- Percentage of lung collagen fibers (%) [1, 6]: 8.5±2.5 %
- IL-6 [1, 4]: 34.8 ± 3.7 pg/mL
- TGF-β [1, 4]: 79.0 ± 6.4 pg/mL
- IL-6 [1, 5]: 32.5 ± 6.1 pg/mL
- TGF-β [1, 5]: 69.1 ± 6.3 pg/mL
- IL-6 [1, 6]: 28.3 ± 3.9 pg/mL
- TGF-β [1, 6]: 56.3 ± 5.2 pg/mL
- IL-4 [2, 7]: 70.92 ± 10.87 pg/mL
- IgE [2, 7]: 266.55 ± 52.03 pg/mL
- IL-4 [2, 8]: 59.38 ± 9.90 pg/mL
- IgE [2, 8]: 219.05 ± 38.74 pg/mL
- IL-4 [2, 9]: 51.13 ± 16.07 pg/mL
- IgE [2, 9]: 189.36 ± 56.69 pg/mL
- Eosinophils (%) [2, 7]: 21.97±2.58 %
- Eosinophils (%) [2, 8]: 17.93±3.30 %
- Eosinophils (%) [2, 9]: 16.04±2.97 %
- Number of sneezes (20 minutes) [2, 7]: 17.9±3.4
- Number of sneezes (20 minutes) [2, 8]: 16.3±3.7
- Number of sneezes (20 minutes) [2, 9]: 13.8±1.9
- 14-day FEV 1/FVC (%) ([3]; 5 mg/kg twice a day): 66.65±5.48 %
- 28-day FEV 1/FVC (%) ([3]; 5 mg/kg twice a day): 69.99±2.65 %
- 14-day FEV 1/FVC (%) ([3]; 10 mg/kg twice a day): 72.14±6.56 %
- 28-day FEV 1/FVC (%) ([3]; 10 mg/kg twice a day): 75.30±1.84 %
- 14-day FEV 1/FVC (%) ([3]; 20 mg/kg twice a day): 76.78±5.41 %
- 28-day FEV 1/FVC (%) ([3]; 20 mg/kg twice a day): 77.10±1.81 %
- Pathological score [3, 10]: 3.83 ± 0.75
- Pathological score [3, 11]: 2.00±0.63
- Pathological score [3, 12]: 1.83±0.41
- IL-1β [3, 10]: 71.13 ± 16.14 pg/mL
- TNF-α [3, 10]: 118.36 ± 27.30 pg/mL
- IL-1β [3, 11]: 51.92 ± 16.06 pg/mL
- TNF-α [3, 11]: 90.15 ± 15.79 pg/mL
- IL-1β [3, 12]: 50.75 ± 15.07 pg/mL
- TNF-α [3, 12]: 73.23 ± 11.78 pg/mL
- IC50 (hERG potassium channel): > 30000 nM

- IC50 (PDE4C1): 2190 nM
- Selectivity over PDE4B (PDE4C1; PDE4C1 vs PDE4B2A): 89
- IC50 (PDE4A1A): 112 nM
- Selectivity over PDE4B (PDE4A1A; PDE4A1A vs PDE4B2A): 4.5
- IC50 (PDE4D2): 37.1 nM
- Selectivity over PDE4B (PDE4D2; PDE4D2 vs PDE4B2A): 1.5
- IC50 (PDE4B2A): 24.5 nM
- Selectivity over PDE4B (PDE4B2A; PDE4B2A vs PDE4B2A): 1
- IC50 (PDE4D3): 65.8 nM
- Selectivity over PDE4B (PDE4D3; PDE4D3 vs PDE4B2A): 2.7
SMILES: [O-][S+]1CCc2nc(N3CCC(c4ncc(Cl)cn4)CC3)nc(NC3(CO)CCC3)c21 (stereo not drawn) [WO2013026797 (Compound II)]
- IC50 at 5 min (hERG potassium channel; human, HEK-293 cells stably expressing hERG potassium channels): > 3280 nM
